pIC50: −log10 of the molar value.
Tests used:
DBA/2N type mice = assay: Audiogenic seizure suppressing effect; type: in vivo; conditions: compound 10 mg/kg, i.p., audio stimulus after 20 minutes, suppression of average seizure score; for inhibition in vivo at 10 mg/kg: Mus musculus, ip, 20 min, read-out: Antiseizure effect (suppression rate %)
Procedure: Audiogenic Seizure Suppressing Effect
The audiogenic seizure suppressing effect of the compounds was evaluated by the method of Sarro et al. [G. B. De Sarro et al., Br. J. Pharmacol., 93, 247 (1988)]. That is, the compound dissolved in 10% 2-hydroxypropyl-β-cyclodextrin was administered intraperitoneally to DBA/2N type mice (male, 3 weeks old). After 20 minutes, a supersonic washer was used to apply audio stimulus of at least 90 dB for one minute. The wild running (WR), clonic seizures (clonus), tonic seizures (tonus), and respiratory arrest (RA) were observed.

Sodium channel = assay: Inhibitory effect of veratrizine-induced sodium channel activity (synaptosome membrane potential, Rhodamine 6G); type: biochemical, Wistar rats; conditions: compound 0.1 μM, rat brain synaptozomes, veratridine-induced depolarization
Procedure: Inhibitory Effect of Veratrizine-induced Sodium Channel Activity
The membrane potential of the synaptozomes prepared from the brain membrane of Wistar rats (male, 10 to 12 weeks old) was measured by the method of Aiuchi et al. (t. Aiuchi et al: Biochimi. Biophys. Acta. 771, 228 (1984)) using a membrane potential sensitive fluorescent dye Rhodamine 6G to evaluate the effects of suppression of the compound on the veratrizine-inducing depolarization response.

T-type Ca^2+ channel = assay: T-type calcium channel inhibitory effect (whole-cell patch clamp, hippocampal CA1 pyramidal cells); conditions: read-out: T-type Ca^2+ channel inhibitory effect IC50; suppression of peak current after one minute of application; rat hippocampal CA1 pyramidal cells
Procedure: T-Type Calcium Channel Inhibitory Effect
The hippocampal CA1 pyramidal cells were isolated from Wistar rats (female, 1 week old) according to the method reported by Takahashi et al. [K. Takahashi et al.; J. Pharmacol. Exp. Ther., 256, 169 (1991)] and the T-type calcium current under conditions of a fixed membrane potential was measured using the whole-cell configration of the patch clamp technique. The effects of the compounds were evaluated from the rate of suppression of the peak current after one minute of application using the concentration clamp method.

SMILES	inhibition in vivo at 10 mg/kg (DBA/2N type mice) [%]	Anti-veratridine effect (inhibiting rate %) (Sodium channel) [%]	other results
O=C(CN1CCC(O)(c2ccc(Cc3ccc(F)cc3)cc2)CC1)N[C@@H]1C[C@H]1c1ccccc1 (relative stereo) [Compound 54, N-(trans-2-phenyl-1-cyclopropyl)-4-[4-(4-fluorophenyl)methylphenyl]-4-hydroxy-1-piperidinacetamide]	58	20.4	–
Fc1cc(C2CCN(C/C=C/c3ccccc3)CC2)ccc1-c1ccccc1 [Compound 18, (E)-4-(3-fluoro-4-phenyl)phenyl-1-(3-phenyl-2-propenyl)piperidine]	62	13.1	–
O=C(CN1CCC(c2ccc(-c3ccccc3)c(F)c2)CC1)c1ccccc1 [Compound 19, 4-(3-fluoro-4-phenyl)phenyl-1-(2-phenyl-2-oxoethyl)piperidine]	52	12.9	–
O=C(CN1CCC(O)(c2ccc(-c3ccccc3)c(F)c2)CC1)c1ccccc1 [Compound 20, 4-(3-fluoro-4-phenyl)phenyl-1-(2-phenyl-2-oxoethyl)-4-piperidinol]	91.3	20.2	pIC50 (T-type Ca^2+ channel): 5.52
COc1ccc(C(=O)CN2CCC(O)(c3ccc(-c4ccccc4)c(F)c3)CC2)cc1 [Compound 21, 4-(3-fluoro-4-phenyl)phenyl-1-[2-(4-methoxyphenyl)-2-oxoethyl]-4-piperidinol]	91.3	18.6	–
C(=C\c1ccccc1)/CN1CCC(c2ccc(-c3ccccc3)cc2)CC1 [Compound 22, (E)-4-(4-phenyl)phenyl-1-(3-phenyl-2-propenyl)piperidine]	72	–	–
O=C(CN1CCC(c2ccc(-c3ccccc3)cc2)CC1)c1ccccc1 [Compound 23, 4-(4-phenyl)phenyl-1-(2-phenyl-2-oxoethyl)piperidine]	84	11.3	–
OC(COc1ccccc1)CN1CCC(O)(c2ccc(-c3ccccc3)c(F)c2)CC1 (stereo not shown) [Compound 24, 4-(3-fluoro-4-phenyl)phenyl-1-(2-hydroxy-3-phenoxy)propyl-4-piperidinol]	74	23.8	–
Fc1cc(C2CCN(CC3CC3c3ccccc3)CC2)ccc1-c1ccccc1 (stereo not drawn) [Compound 25, 4-(3-fluoro-4-phenyl)phenyl-1-(trans-2-phenyl-1-cyclopropylmethyl)piperidine]	54	57	–
OC1(c2ccc(-c3ccccc3)c(F)c2)CCN(CC2(c3ccccc3)CC2)CC1 [Compound 26, 4-(3-fluoro-4-phenyl)phenyl-1-(1-phenyl-1-cyclopropane)methyl-1-piperidinol]	–	30	–
c1ccc(-c2ccc(C3CCN(CC4CC4c4ccccc4)CC3)cc2)cc1 (stereo not drawn) [Compound 27, 4-(4-phenyl)phenyl-1-(trans-2-phenyl-1-cyclopropylmethyl)piperidine]	52	41	–
c1ccc(-c2ccc(C3CCN(CC4(c5ccccc5)CC4)CC3)cc2)cc1 [Compound 28, 4-(4-phenyl)phenyl-1-(1-phenyl-1-cyclopropane)methylpiperidine]	56	24	–
OC(COc1ccccc1)CN1CCC(c2ccc(-c3ccccc3)cc2)CC1 (stereo not shown) [Compound 29, 4-(4-phenyl)phenyl-1-(2-hydroxy-3-phenoxy)propylpiperidine]	68	40	–
O=C(CN1CCC(c2ccc(-c3ccccc3)c(F)c2)CC1)NC1CC1c1ccccc1 (stereo not drawn) [Compound 31, N-(trans-2-phenyl-1-cyclopropyl)-4-(3-fluoro-4-phenyl)phenyl-1-piperidinacetamide]	–	14	–
OC1(c2ccc(-c3ccccc3)c(F)c2)CCN(CC2CC2c2ccccc2)CC1 (stereo not shown) [Compound 32]	–	27.3	–
OC1(c2ccc(-c3ccccc3)cc2)CCN(C/C=C/c2ccccc2)CC1 [Compound 33, (E)-4-(4-phenyl)phenyl-1-(3-phenyl-2-propenyl)-4-piperidinol]	–	12.8	–
O=C(CN1CCC(O)(c2ccc(Oc3ccccc3)cc2)CC1)c1ccccc1 [Compound 35, 4-(4-phenoxy)phenyl-1-(2-phenyl-2-oxoethyl)-4-piperidinol]	98	27.7	–

SMILES	inhibition in vivo at 10 mg/kg (DBA/2N type mice) [%]	Anti-veratridine effect (inhibiting rate %) (Sodium channel) [%]	other results
OC(COc1ccccc1)CN1CCC(O)(c2ccc(Oc3ccccc3)cc2)CC1 (stereo not shown) [Compound 36, 4-(4-phenoxy)phenyl-1-(2-hydroxy-3-phenoxy)propyl-4-piperidinol]	68	–	Anti-veratridine effect (inhibiting rate %) (Sodium channel; 0.1 µM): 28.6%
OC1(c2ccc(Cc3ccc(F)cc3)cc2)CCN(C/C=C/c2ccccc2)CC1 [Compound 37, (E)-4-[4-(4-fluorophenyl)methylphenyl]-1-1-(3-phenyl-2-propenyl)-4-piperidinol]	88	39.7	–
O=C(CN1CCC(O)(c2ccc(Cc3ccc(F)cc3)cc2)CC1)c1ccccc1 [Compound 38, 4-[4-(4-fluorophenyl)methylphenyl]-1-(2-phenyl-2-oxoethyl)-4-piperidinol]	82	18	–
O=C(CN1CCC(O)(c2ccc(-c3ccccc3)cc2)CC1)c1ccccc1 [Compound 40, 1-(2-phenyl-2-oxoethyl)-4-(4-phenyl)phenyl-4-piperidinol]	84	23	–
OC(COc1ccccc1)CN1CCC(O)(c2ccc(-c3ccccc3)cc2)CC1 (stereo not shown) [Compound 41, 1-(2-hydroxy-3-phenoxy)propyl-4-(4-phenyl)phenyl-4-piperidinol]	92	23.7	–
OC(CN1CCC(O)(c2ccc(-c3ccccc3)cc2)CC1)c1ccccc1 (stereo not shown) [Compound 44, 1-(2-hydroxy-2-phenyl)ethyl-4-(4-phenyl)phenyl-4-piperidinol]	68	–	–
O[C@H](COc1ccccc1)CN1CCC(O)(c2ccc(Oc3ccccc3)cc2)CC1 [Compound 45, (S)-4-(4-phenoxy)phenyl-1-(2-hydroxy-3-phenoxy)propyl-4-piperidinol]	–	–	Antiseizure effect (suppression rate %) (DBA/2N type mice; 10 mg/kg): 82%; Anti-veratridine effect (inhibiting rate %) (Sodium channel; 0.1 µM): 19.8%
O[C@@H](COc1ccccc1)CN1CCC(O)(c2ccc(Oc3ccccc3)cc2)CC1 [Compound 46, (R)-4-(4-phenoxy)phenyl-1-(2-hydroxy-3-phenoxy)propyl-4-piperidinol]	–	19.8	Antiseizure effect (suppression rate %) (DBA/2N type mice): 82%
O[C@H](COc1ccccc1)CN1CCC(O)(c2ccc(Cc3ccc(F)cc3)cc2)CC1 [Compound 47, (S)-4-[4-(4-fluorophenyl)methylphenyl]-1-(2-hydroxy-3-phenoxy)propyl-4-piperidinol]	–	–	Antiseizure effect (suppression rate %) (DBA/2N type mice; 10 mg/kg): 78%; Anti-veratridine effect (inhibiting rate %) (Sodium channel; 0.1 µM): 39.5%
O[C@@H](COc1ccccc1)CN1CCC(O)(c2ccc(Cc3ccc(F)cc3)cc2)CC1 [Compound 48, (R)-4-[4-(4-fluorophenyl)methylphenyl]-1-(2-hydroxy-3-phenoxy)propyl-4-piperidinol]	82	22.7	–
OC1(c2ccc(Oc3ccccc3)cc2)CCN(CC2(c3ccccc3)CC2)CC1 [Compound 49, 4-(4-phenoxy)phenyl-1-(1-phenyl-1-cyclopropane)methyl-4-piperidinol]	50	18.9	–
OC1(c2ccc(Oc3ccccc3)cc2)CCN(CC2CC2c2ccccc2)CC1 (stereo not drawn) [Compound 50, 4-(4-phenoxy)phenyl-1-(trans-2-phenyl-1-cyclopropylmethyl)-4-piperidinol]	56	33.4	–
O=C(CN1CCC(O)(c2ccc(Oc3ccccc3)cc2)CC1)NC1CC1c1ccccc1 (stereo not drawn) [Compound 53, N-(trans-2-phenyl-1-cyclopropyl)-4-hydroxy-4-(4-phenoxy)phenyl-1-piperidinacetamide]	74	32.3	–
Cc1cccc(C)c1NC(=O)CN1CCC(O)(c2ccc(Oc3ccccc3)cc2)CC1 [Compound 55, N-(2,6-dimethylphenyl)-4-hydroxy-4-(4-phenoxy)phenyl-1-piperidinacetamide]	71.7	28.3	–
O=C(CN1CCC(O)(c2ccc(Oc3ccccc3)cc2)CC1)NC1(c2ccccc2)CC1 [Compound 57, N-(1-phenyl)cyclopropyl-4-hydroxy-4-(4-phenoxy)phenyl-1-piperidinacetamide]	60	40.1	–
O=C(CN1CCC(O)(c2ccc(Cc3ccc(F)cc3)cc2)CC1)NC1(c2ccccc2)CC1 [Compound 58, N-(1-phenyl)cyclopropyl-4-hydroxy-4-[4-(4-fluorophenyl)methylphenyl]-1-piperidinacetamide]	51.7	11.3	–
